Measured values reported in ChEMBL document CHEMBL1139028, “Seco-prolinenitrile inhibitors of dipeptidyl peptidase IV define minimal pharmacophore requirements at P1” (Bioorg Med Chem Lett, 2006).
The source made the active and inactive calls. The calls are words filed in the database; no cut-off is given here.

Test system: Rattus norvegicus
Experiment: Antihyperglycemic activity in Zucker fa/fa rat by oral glucose tolerance test at 3 umol/kg, po
Format: functional, organism-based

SMILES	Activity
CN(CC#N)C(=O)[C@@H](N)C12CC3CC(CC(O)(C3)C1)C2	Active

Molecular target: Dipeptidyl peptidase 4 (Homo sapiens, UniProt P27487)
Experiment: Inhibition of DPP4

Chain of Dipeptidyl peptidase 4 (P27487 whole entry): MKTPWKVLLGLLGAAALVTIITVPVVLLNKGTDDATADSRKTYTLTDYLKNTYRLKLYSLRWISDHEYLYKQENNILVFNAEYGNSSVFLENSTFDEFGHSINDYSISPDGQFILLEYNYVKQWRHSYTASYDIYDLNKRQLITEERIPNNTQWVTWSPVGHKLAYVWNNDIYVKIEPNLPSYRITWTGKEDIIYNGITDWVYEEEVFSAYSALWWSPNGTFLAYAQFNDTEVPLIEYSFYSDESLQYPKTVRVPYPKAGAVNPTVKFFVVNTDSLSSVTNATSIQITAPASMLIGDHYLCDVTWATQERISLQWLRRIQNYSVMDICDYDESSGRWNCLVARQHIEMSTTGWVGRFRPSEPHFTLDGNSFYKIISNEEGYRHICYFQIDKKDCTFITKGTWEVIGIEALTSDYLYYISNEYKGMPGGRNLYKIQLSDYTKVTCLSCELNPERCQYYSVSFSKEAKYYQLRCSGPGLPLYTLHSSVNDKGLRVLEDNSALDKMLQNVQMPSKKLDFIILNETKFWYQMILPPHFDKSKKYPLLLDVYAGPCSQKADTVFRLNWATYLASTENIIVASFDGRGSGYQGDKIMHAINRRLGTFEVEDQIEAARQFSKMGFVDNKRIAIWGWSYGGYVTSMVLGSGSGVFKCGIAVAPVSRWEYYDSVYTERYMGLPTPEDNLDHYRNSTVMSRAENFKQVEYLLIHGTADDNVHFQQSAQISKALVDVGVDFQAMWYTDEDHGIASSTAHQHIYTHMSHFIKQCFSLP

Ki	SMILES
> 10 µM	CCCCN(CC#N)C(=O)[C@@H](N)C(C)(C)C
> 10 µM	N#CCNC(=O)[C@@H](N)C12CC3CC(CC(C3)C1)C2
> 10 µM	CC(C)(C#N)NC(=O)[C@@H](N)C12CC3CC(CC(C3)C1)C2
> 10 µM	N#CCN(Cc1ccccc1)C(=O)[C@@H](N)C12CC3CC(CC(C3)C1)C2
> 10 µM	CC(C)(C#N)NC(=O)[C@@H](N)C(C)(C)C
